Data published in PMC6940900, “Antiviral Activity of Benzoic Acid Derivative NC-5 Against Influenza A Virus and Its Neuraminidase Inhibition” (International Journal of Molecular Sciences, 2019).

Columns and labels:
[1] = molecular target: NA of A/Vietnam/1203/2004 (H5N1) (Influenza A virus (A/Viet Nam/1203/2004(H5N1)), UniProt Q6DPL2); assay: cell-based
[2] = molecular target: NA of A/Anhui/1/2013 (H7N9) (Influenza A virus (A/Anhui/1-BALF_RG1/2013(H7N9)), UniProt A0A024E3Q2); assay type: cell-based

## O=C(O)c1ccc(N2C(=O)CCC2(CO)CO)c(Nc2nnc(C3CCCCC3)[nH]2)c1 [compound 5]
[1]
  IC50: > 480 µM
[2]
  IC50: > 480 µM
